Assay results published in publication PMC11199504, “New hemisynthetic derivatives of sphaeropsidin phytotoxins triggering severe endoplasmic reticulum swelling in cancer cells” (Scientific Reports, 2024).

Tests used:
KB-3-1 = assay: MTT assay, KB-3-1 (parental sensitive); assay type: cell-based; details: Homo sapiens, KB 3-1, 72 h, read-out: IC50 determined by MTT assays, KB-3-1
From the text: (§1) Cancer cell lines were obtained from either the European Collection of Cell Cultures (ECACC; Salisbury, UK) or the American Type Culture Collection (ATCC; Manassas, VA). The two glioma cell lines were the U373 (ECACC code 08061901) and Hs683 (ATCC HTB-138) cell lines. The carcinoma cell lines were the A549 non-small cell carcinoma cell line (ATCC code CCL 185) and the MCF-7 mammary breast carcinoma cell line (ATCC code HTB-22). The melanoma cell lines were the mouse B16F10 cells (ATCC code CRL-6475) and the human SKMEL-28 cells (ATCC code HTB-72). The ovarian cancer cell line A2780 and its cisplatin-resistant subline A2780cis were obtained from Sigma-Aldrich (St. Louis, MO, USA). Colon cancer HCT116 cells were obtained from ATCC (CCL-247) and the oxaliplatin-resistant subline HCT116/OxR established in the W. Berger lab[59]. The HeLa cell derivative KB-3-1 and the colchicine-selected, highly ABCB1-overexpressing subline KB-C-1 were generously donated by Dr. D. W. Shen, Bethesda, MD. RKOp53wt colon cancer cells together with the RKOp53KO (homozygous knock-out) subline[60] were generously provided by Dr. Vogelstein from John Hopkins University, Baltimore. The correct origin of all cell models was confirmed by STR during performance of the experiments. All cell lines were cultured in RPMI1640 culture medium supplemented with 10% heat-inactivated fetal bovine serum, 2% L-glutamine (0.6 mg/mL), 2% penicillin/streptomycin (200 IU/mL and 200 μg/mL) and 0.1 mg/mL gentamicin.
(§2) The MTT (3-(4,5-dimethylthiazol-2-yl)-2,5-diphenyl tetrazolium bromide) colorimetric assay has been conducted as described previously. Briefly, cells were seeded 24 h before their treatment with each compound for a period of 72 h. The concentrations tested ranged from 10 nM to 100 µM. Each assay was conducted in sextuplicates. The number of independent experiments is mentioned in the legend of the tables.
(§3) SI Table 1: IC50 determined by MTT assays. Mean concentration (± standard deviation) in µM required to
(§4) reduce the viability of cells by 50% after a 72 h treatment relative to the control.
(§5) Parental sensitive models Drug-resistant models

KB-C-1 = assay: MTT assay, KB-C-1 (ABCB1-overexpressing); assay type: cell-based; details: KBC-1, 72 h, read-out: IC50 determined by MTT assays, KB-C-1
From the text: as §1, §2, §3, §4, §5

B16F10 = assay: MTT colorimetric assay, B16F10; assay type: cell-based; details: Mus musculus, B16-F10; 72 h treatment; mean ± SEM; sensitive to apoptosis; read-out: IC50 determined by MTT assays, B16F10
From the text: as §1, §2

SKMEL-28 = assay: MTT colorimetric assay, SKMEL-28; assay type: cell-based; details: Homo sapiens, SK-MEL-28; 72 h treatment; mean ± SEM; resistant to apoptosis; read-out: IC50 determined by MTT assays, SKMEL-28
From the text: as §1, §2

[1] = tested on: SKMEL-28 melanoma and U373 glioblastoma cells; assay: Morphological evaluation by phase contrast microscopy / videomicroscopy; assay type: cell-based, human; details: videomicroscopy in SKMEL-28 cells
Description: For the morphological evaluation of the effects induced by compounds 1 and 13, 6 × 10^4 cells were seeded on glass coverslips placed in 6 well plates a minimum 24 h before their treatment. At the end of the incubation period with the treatment, coverslips were rinsed once in PBS buffer and directly mounted on slides to allow visualization of the cell with an Axio.Imager.M2 microscope (G X40 and G X100).

MCF7 = assay: MTT colorimetric assay, MCF7; assay type: cell-based; details: Homo sapiens, 72 h treatment, mean ± SEM, sensitive to apoptosis, read-out: IC50 determined by MTT assays, MCF7
From the text: as §1, §2

A549 = assay: MTT colorimetric assay, A549; assay type: cell-based; details: Homo sapiens, 72 h treatment, mean ± SEM of six replicates of one experiment (1: 7, 13: 6 independent experiments), resistant to apoptosis, read-out: IC50 determined by MTT assays, A549
From the text: as §1, §2

U373 = assay: MTT colorimetric assay, U373; assay type: cell-based; details: Homo sapiens, U373 MG; 72 h treatment; mean ± SEM; resistant to apoptosis; read-out: IC50 determined by MTT assays, U373
From the text: as §1, §2

Hs683 = assay: MTT colorimetric assay, Hs683; assay type: cell-based; details: Homo sapiens, Hs 683; 72 h treatment; mean ± SEM; sensitive to apoptosis; read-out: IC50 determined by MTT assays, Hs683
From the text: as §1, §2

[2] = tested on: A549, SKMEL-28, U373, MCF7, Hs683, B16F10; assay: MTT colorimetric assay, mean of the six cell lines; assay type: cell-based; details: 72 h, mean over the six cell lines; 72 h treatment; read-out: IC50 determined by MTT assays, Mean
From the text: as §1, §2

Hct116 = assay: MTT assay, Hct116 (parental sensitive); assay type: cell-based; details: 72 h treatment; ± standard deviation; parental sensitive model; read-out: IC50 determined by MTT assays, Hct116
From the text: as §1, §2, §3, §4, §5

Hct116/OxR = assay: MTT assay, Hct116/OxR (oxaliplatin-resistant); assay type: cell-based; details: 72 h treatment; ± standard deviation; drug-resistant model; read-out: IC50 determined by MTT assays, Hct116/OxR
From the text: as §1, §2, §3, §4, §5

A2780 = assay: MTT assay, A2780 (parental sensitive); assay type: cell-based; details: 72 h treatment; ± standard deviation; parental sensitive model; read-out: IC50 determined by MTT assays, A2780
From the text: as §1, §2, §3, §4, §5

RKO/P53wt = assay: MTT assay, RKO/P53wt (parental sensitive); assay type: cell-based; details: 72 h treatment; ± standard deviation; parental sensitive model; read-out: IC50 determined by MTT assays, RKO/P53wt
From the text: as §1, §2, §3, §4, §5

RKO/p53ko = assay: MTT assay, RKO/p53ko; assay type: cell-based; details: 72 h treatment; ± standard deviation; drug-resistant model; read-out: IC50 determined by MTT assays, RKO/p53ko
From the text: as §1, §2, §3, §4, §5

A2780R = assay: MTT assay, A2780R (cisplatin-resistant); assay type: cell-based; details: 72 h treatment; ± standard deviation; drug-resistant model; read-out: IC50 determined by MTT assays, A2780R
From the text: as §1, §2, §3, §4, §5

COc1cccc2c1C(=O)c1c(O)c3c(c(O)c1C2=O)C[C@@](O)(C(=O)CO)C[C@@H]3O[C@H]1C[C@H](N)[C@H](O)[C@H](C)O1 [doxorubicin]
IC50 (KB-3-1): 59 ± 30 nM
IC50 (KB-C-1): > 250000 nM

C=CC1(C)C=C2C(=O)C3(OC(=O)c4ccccc4)OC(=O)C4(CCCC(C)(C)C34)C2(O)CC1 (stereo not shown) [Compound 4]
IC50 (B16F10): 1880 ± 100 nM
IC50 (SKMEL-28): 2290 ± 170 nM
delay in the cellular shrinkage versus SphA 1 [1]: ≥ 24 h
IC50 (MCF7): 1950 ± 140 nM
IC50 (A549): 1760 ± 290 nM
IC50 (U373): 2190 ± 70 nM
IC50 (Hs683): 2500 ± 120 nM
IC50 [2]: 2100 ± 110 nM

O=C1[O][Pt]2([NH][C@@H]3CCCC[C@H]3[NH]2)[O]C1=O [oxaliplatin]
IC50 (Hct116): 600 ± 80 nM
IC50 (Hct116/OxR): 22100 ± 2300 nM

N.N.[Cl][Pt][Cl] [cisplatin]
IC50 (A2780): 1800 ± 90 nM
IC50 (RKO/P53wt): 2000 ± 300 nM
IC50 (RKO/p53ko): 3700 ± 1200 nM
IC50 (A2780R): > 10000 nM
